# From patent US6737383B1, “Herbicidal oxadiazolidines” (priority 1999, dated 2004)
# Experiments:
# blackgrass = experiment: Test B pre/postemergence blackgrass; format: in vivo, Alopecurus myosuroides
# Procedure, shortened: (§1)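 Test chemicals in a non-phytotoxic solvent mixture with surfactant were sprayed preemergence onto planted seeds and postemergence onto plants 2 to 18 cm tall (1- to 4-leaf stage). After twelve to sixteen days in a greenhouse, injury was visually rated against untreated controls from 0 (no effect) to 10 (complete control).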
# sugar beet = experiment: Test B pre/postemergence sugar beet; format: in vivo, Beta vulgaris
# Procedure, shortened: as §1
# velvetleaf = experiment: Test B pre/postemergence velvetleaf; format: in vivo, Abutilon theophrasti; details: for Plant response rating, Velvetleaf: Postemergence
# Procedure, shortened: as §1
# bedstraw = experiment: Test B pre/postemergence bedstraw; format: in vivo, Galium aparine
# Procedure, shortened: as §1
# wild oat = experiment: Test B pre/postemergence wild oat; format: in vivo, Avena fatua; details: for Plant response rating, Wild oats: Postemergence
# Procedure, shortened: as §1
# pigweed = experiment: Test B pre/postemergence pigweed; format: in vivo, Amaranthus retroflexus; details: for Plant response rating, Redroot pigweed: Postemergence
# Procedure, shortened: as §1
# crabgrass = experiment: Test B pre/postemergence crabgrass; format: in vivo, Digitaria sanguinalis
# Procedure, shortened: as §1
# cocklebur = experiment: Test B pre/postemergence cocklebur; format: in vivo, Xanthium strumarium
# Procedure, shortened: as §1
# corn = experiment: Test B pre/postemergence corn; format: in vivo, Zea mays
# Procedure, shortened: as §1
# bamyardgrass = experiment: Test B flood test barnyardgrass; format: in vivo, Echinochloa crus-galli
# Procedure, shortened: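 Read-out is a visual response score from 0 (no effect) to 10 (complete control), assigned by comparison with untreated controls. Treatment was applied at the 2-leaf stage, and plants stayed in the greenhouse for twelve to sixteen days before scoring.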
# [1] = Postemergence, Rate 62 g/ha, scale of 0 to 10, 0 is no effect, 10 is complete control
# [2] = Postemergence, Rate 125 g/ha, scale 0 to 10, 0 is no effect, 10 is complete control
# [3] = Postemergence, Rate 500 g/ha, scale of 0 to 10 where 0 is no effect and 10 is complete control
# [4] = Preemergence, Rate 62 g/ha, scale 0 to 10 (0 no effect, 10 complete control)
# [5] = Preemergence, Rate 125 g/ha, scale 0 to 10, 0 is no effect, 10 is complete control
# [6] = Preemergence, Rate 500 g/ha, scale of 0 to 10 where 0 is no effect and 10 is complete control
# [7] = Rate 250 g/ha, Postemergence, scale of 0 to 10 where 0 is no effect and 10 is complete control
# [8] = Rate 500 g/ha, scale of 0 to 10 where 0 is no effect and 10 is complete control
# [9] = Rate 250 g/ha, scale of 0 to 10 where 0 is no effect and 10 is complete control
compound,measurement,setting,value
CC(C)N(C(=O)n1oc(=O)n(C[Si](C)(C)C)c1=O)c1ccccc1 [Compound 577],Blackgrass plant response rating,blackgrass; [1],0
same,Blackgrass plant response rating,blackgrass; [2],0
same,"Plant response rating, Blackgrass",blackgrass; [3],0
same,Blackgrass plant response rating,blackgrass; [4],0
same,Blackgrass plant response rating,blackgrass; [5],0
same,Blackgrass plant response rating (0 to 10 scale),"blackgrass; Preemergence, Rate 250 g/ha",3
same,Blackgrass plant response rating,blackgrass; [6],6
same,"Plant response rating, Blackgrass",blackgrass; [7],0
same,Sugarbeets plant response rating,sugar beet; [4],0
same,Sugarbeets plant response rating,sugar beet; [5],0
same,Sugarbeets plant response rating (0 to 10 scale),"sugar beet; Preemergence, Rate 250 g/ha",0
same,Sugarbeets plant response rating,sugar beet; [6],0
same,"Plant response rating, Sugarbeets",sugar beet; [7],0
same,"Plant response rating, Velvetleaf",velvetleaf; [8],0
same,Velvetleaf plant response rating,velvetleaf; [4],4
same,Velvetleaf plant response rating,velvetleaf; [5],3
same,Velvetleaf plant response rating (0 to 10 scale),"velvetleaf; Preemergence, Rate 250 g/ha",3
same,Velvetleaf plant response rating,velvetleaf; [6],4
same,"Plant response rating, Velvetleaf",velvetleaf; [9],0
same,Bedstraw plant response rating,bedstraw; [2],4
same,Bedstraw plant response rating,bedstraw; [4],0
same,Bedstraw plant response rating,bedstraw; [5],0
same,Bedstraw plant response rating (0 to 10 scale),"bedstraw; Preemergence, Rate 250 g/ha",0
same,Bedstraw plant response rating,bedstraw; [6],0
same,"Plant response rating, Wild oats",wild oat; [8],0
same,Wild oats plant response rating,wild oat; [4],0
same,Wild oats plant response rating,wild oat; [5],0
same,Wild oats plant response rating (0 to 10 scale),"wild oat; Preemergence, Rate 250 g/ha",0
same,Wild oats plant response rating,wild oat; [6],0
same,"Plant response rating, Wild oats",wild oat; [9],0
same,"Plant response rating, Redroot pigweed",pigweed; [8],0
same,Redroot pigweed plant response rating,pigweed; [4],0
same,Redroot pigweed plant response rating,pigweed; [5],0
same,Redroot pigweed plant response rating (0 to 10 scale),"pigweed; Preemergence, Rate 250 g/ha",0
same,Redroot pigweed plant response rating,pigweed; [6],0
same,"Plant response rating, Redroot pigweed",pigweed; [9],0
same,Crabgrass plant response rating,crabgrass; [1],0
same,Crabgrass plant response rating,crabgrass; [2],0
same,"Plant response rating, Crabgrass",crabgrass; [3],3
same,Crabgrass plant response rating,crabgrass; [4],7
same,Crabgrass plant response rating,crabgrass; [5],9
same,Crabgrass plant response rating (0 to 10 scale),"crabgrass; Preemergence, Rate 250 g/ha",9
same,Crabgrass plant response rating,crabgrass; [6],10
same,"Plant response rating, Crabgrass",crabgrass; [7],3
same,Cocklebur plant response rating,cocklebur; [1],0
same,Cocklebur plant response rating,cocklebur; [2],0
same,"Plant response rating, Cocklebur",cocklebur; [3],2
same,Cocklebur plant response rating,cocklebur; [4],0
same,Cocklebur plant response rating,cocklebur; [5],0
same,Cocklebur plant response rating (0 to 10 scale),"cocklebur; Preemergence, Rate 250 g/ha",0
same,Cocklebur plant response rating,cocklebur; [6],0
same,"Plant response rating, Cocklebur",cocklebur; [7],0
same,Corn plant response rating,corn; [1],0
same,Corn plant response rating,corn; [2],0
same,"Plant response rating, Corn",corn; [3],2
same,Corn plant response rating,corn; [4],2
same,Corn plant response rating,corn; [5],2
same,Corn plant response rating (0 to 10 scale),"corn; Preemergence, Rate 250 g/ha",2
same,Corn plant response rating,corn; [6],3
same,"Plant response rating, Corn",corn; [7],0
same,"Plant response rating, Barnyardgrass (0 to 10 scale, 0 is no effect, 10 is complete control)","bamyardgrass; Rate 62 g/ha, flood test species, Pre-emergence, visual evaluation after twelve to sixteen days",0
same,"Barnyardgrass plant response rating (0 to 10 scale, 0 is no effect, 10 is complete control)","bamyardgrass; Rate 125 g/ha, under heading Pre-emergence, flood test species, visual evaluation after twelve to sixteen days",0
same,Barnyardgrass plant response rating,"bamyardgrass; Rate 250 g/ha, Pre-emergence (flood test species), scale 0 to 10, 0 is no effect, 10 is complete control",0
